Experiment [1] deals with CCRF-CEM. The experiment is described as follows: Induction of apoptosis in human CEM cells assessed as increase in caspase-3 activity using Ac-DEVD-AMC as a substrate at 2 uM after 24 hrs by fluorescence microplate reader assay relative to untreated control. The class given is functional.
Experiment [2] has as its system CCRF-CEM. The experiment is described as follows: Induction of apoptosis in human CEM cells assessed as increase in caspase-7 activity using Ac-DEVD-AMC as a substrate at 5 uM after 24 hrs by fluorescence microplate reader assay relative to untreated control. The experiment is classed as functional.
In experiment [3] the test system is CCRF-CEM. The experiment is described as follows: Induction of apoptosis in human CEM cells assessed as increase in caspase-3 activity using Ac-DEVD-AMC as a substrate at 5 uM after 24 hrs by fluorescence microplate reader assay relative to untreated control. The experiment is classed as functional.
Experiment [4] relates to CCRF-CEM. The experiment is described as follows: Cytotoxicity against human CEM cells assessed as viable cells after 72 hrs by calcein AM assay. The class given is functional, cell-based.
Experiment [5] has as its system CCRF-CEM. The experiment is described as follows: Induction of apoptosis in human CEM cells assessed as effect on retinoblastoma protein expression at 1 to 5 uM after 24 hrs by Western blot analysis relative to untreated control. The class given is functional, cell-based. A general note: A western blot detects proteins with antibodies after separation by electrophoresis.

Another experiment deals with HeLa. The experiment is described as follows: Cytotoxicity against human HeLa cells assessed as viable cells after 72 hrs by calcein AM assay. The experiment is classed as functional, cell-based.
Experiment [6] concerns CCRF-CEM. The experiment is described as follows: Induction of apoptosis in human CEM cells assessed as increase in Bcl-2 protein level after 24 hrs by Western blot analysis relative to untreated control. The experiment is classed as functional, cell-based.
In experiment [7] the test system is CCRF-CEM. The experiment is described as follows: Induction of apoptosis in human CEM cells assessed as effect on […] protein expression at 1 to 5 uM after 24 hrs by Western blot analysis relative to untreated control. The experiment is classed as functional, cell-based.
Experiment [8] has as its system CCRF-CEM. The experiment is described as follows: Induction of apoptosis in human CEM cells assessed as increase in caspase-7 activity using Ac-DEVD-AMC as a substrate at 1 uM after 24 hrs by fluorescence microplate reader assay relative to untreated control. The class given is functional.
Experiment [9] has as its system CCRF-CEM. The experiment is described as follows: Induction of apoptosis in human CEM cells assessed as increase in amount of DNA at subG1-phase after 24 hrs by flow cytometric analysis relative to untreated control. The class given is functional, cell-based. A general note: In flow cytometry, cells or beads pass a laser one at a time.
Experiment [10] deals with CCRF-CEM. The experiment is described as follows: Induction of apoptosis in human CEM cells assessed as increase in caspase-3 activity using Ac-DEVD-AMC as a substrate at 1 uM after 24 hrs by fluorescence microplate reader assay relative to untreated control. The experiment is classed as functional.
For a further experiment, the system named is A549. The experiment is described as follows: Cytotoxicity against human A549 cells assessed as viable cells after 72 hrs by calcein AM assay. The class given is functional, cell-based. The conditions noted are these: A549, 72 h.
Experiment [11] deals with CCRF-CEM. The experiment is described as follows: Induction of apoptosis in human CEM cells assessed as increase in caspase-7 activity using Ac-DEVD-AMC as a substrate at 2 uM after 24 hrs by fluorescence microplate reader assay relative to untreated control. The experiment is classed as functional.
Experiment [12] can be described thus: Cytotoxicity against human T98 cells assessed as viable cells after 72 hrs by calcein AM assay. The class given is functional, cell-based. The conditions noted are these: T98, 72 h.
In another experiment the test system is HOS. The experiment is described as follows: Cytotoxicity against human HOS cells assessed as viable cells after 72 hrs by calcein AM assay. The class given is functional, cell-based.
For the next experiment, the system named is G-361. The experiment is described as follows: Cytotoxicity against human G361 cells assessed as viable cells after 72 hrs by calcein AM assay. The experiment is classed as functional, cell-based. The conditions noted are these: G-361, 72 h.
Experiment [13] concerns CCRF-CEM. The experiment is described as follows: Induction of apoptosis in human CEM cells assessed as cleavage of PARP at 1 to 5 uM after 24 hrs by Western blot analysis relative to untreated control. The experiment is classed as functional, cell-based.
The subject of a further experiment is MCF7. The experiment is described as follows: Cytotoxicity against human MCF7 cells assessed as viable cells after 72 hrs by calcein AM assay. The experiment is classed as functional, cell-based. The conditions noted are these: MCF7, 72 h.
Experiment [14] deals with CCRF-CEM. The experiment is described as follows: Induction of cell cycle arrest in human CEM cells assessed as increase in accumulation of cells at G2/M-phase after 24 hrs by flow cytometric analysis relative to untreated control. The class given is functional, cell-based.
Experiment [15] relates to CCRF-CEM. The experiment is described as follows: Induction of cell cycle arrest in human CEM cells assessed as reduction in accumulation of cells at G0/G1-phase after 24 hrs by flow cytometric analysis relative to untreated control. The experiment is classed as functional, cell-based.
The subject of the next experiment is HCT-116. The experiment is described as follows: Cytotoxicity against human HCT116 assessed as viable cells after 72 hrs by calcein AM assay. The experiment is classed as functional, cell-based. The conditions noted are these: HCT-116, 72 h.
The test system of experiment [16] is CCRF-CEM. The experiment is described as follows: Induction of cell cycle arrest in human CEM cells assessed as increase in accumulation of cells at S-phase after 24 hrs by flow cytometric analysis relative to untreated control. The experiment is classed as functional, cell-based.
Experiment [17] deals with CCRF-CEM. The experiment is described as follows: Induction of apoptosis in human CEM cells assessed as accumulation of caspase-3 after 24 hrs by Western blot analysis relative to untreated control. The experiment is classed as functional, cell-based.
Another experiment has as its system BJ. The experiment is described as follows: Cytotoxicity against human BJ cells assessed as viable cells after 72 hrs by calcein AM assay. The experiment is classed as cell-based.
For experiment [18], the system named is CCRF-CEM. The experiment is described as follows: Induction of apoptosis in human CEM cells assessed as increase in caspase-7 activity using Ac-DEVD-AMC as a substrate at 0.5 uM after 24 hrs by fluorescence microplate reader assay relative to untreated control. The class given is functional.
The subject of experiment [19] is CCRF-CEM. The experiment is described as follows: Induction of apoptosis in human CEM cells assessed as effect on retinoblastoma protein expression at 0.1 to 0.5 uM after 24 hrs by Western blot analysis relative to untreated control. The experiment is classed as functional, cell-based.
The test system of experiment [20] is CCRF-CEM. The experiment is described as follows: Induction of apoptosis in human CEM cells assessed as effect on […] protein expression at 0.1 to 0.5 uM after 24 hrs by Western blot analysis relative to untreated control. The class given is functional, cell-based.
The subject of experiment [21] is CCRF-CEM. The experiment is described as follows: Induction of apoptosis in human CEM cells assessed as increase in caspase-3 activity using Ac-DEVD-AMC as a substrate at 0.5 uM after 24 hrs by fluorescence microplate reader assay relative to untreated control. The experiment is classed as functional.
Experiment [22] deals with CCRF-CEM. The experiment is described as follows: Induction of apoptosis in human CEM cells assessed as increase in caspase-3 activity using Ac-DEVD-AMC as a substrate at 0.25 uM after 24 hrs by fluorescence microplate reader assay relative to untreated control. The class given is functional.
Experiment [23] deals with CCRF-CEM. The experiment is described as follows: Induction of apoptosis in human CEM cells assessed as increase in caspase-7 activity using Ac-DEVD-AMC as a substrate at 0.25 uM after 24 hrs by fluorescence microplate reader assay relative to untreated control. The class given is functional.
For experiment [24], the system named is CCRF-CEM. The experiment is described as follows: Induction of apoptosis in human CEM cells assessed as cleavage of PARP at 0.1 to 0.5 uM after 24 hrs by Western blot analysis relative to untreated control. The experiment is classed as functional, cell-based.

This is an account of results in ChEMBL document CHEMBL1773000, “Synthesis and biological activity of 22-deoxo-23-oxa analogues of saponin OSW-1” (J Med Chem, 2011).

Molecules are shown by their SMILES. Calls of active or inactive are those of the source. The rule behind the calls is not given here.

What is called IC50 is the midpoint of a concentration-inhibition curve. Turning to `COc1ccc(C(=O)OC[C@@H](C)[C@@]2(O)[C@@H](O[C@@H]3OC[C@H](O)[C@H](O[C@@H]4OC[C@@H](O)[C@H](O)[C@H]4OC(=O)c4ccc(OC)cc4)[C@H]3OC(C)=O)C[C@H]3[C@@H]4CC=C5C[C@@H](O)CC[C@]5(C)[C@H]4CC[C@@]32C)cc1`, the “fold change (FC)” value with CCRF-CEM [1] worked out at 1.7; in the experiment on CCRF-CEM [2], 1.8; in the experiment with CCRF-CEM [3] it was 1.8; with CCRF-CEM [8], 2.1; in the experiment with CCRF-CEM [10], 2.1; in the experiment with CCRF-CEM [11] it was 1.7. The IC50 was 57 nM in the experiment on CCRF-CEM [4]; 340 nM in the experiment on HeLa; 570 nM with A549; 55 nM in experiment [12]; 5400 nM with HOS; 170 nM in the experiment with G-361. Also, the IC50 with MCF7 was 410 nM; in the experiment with HCT-116, 5000 nM; in the experiment on BJ it was 39 nM. Besides, the result in the experiment on CCRF-CEM [5] and with CCRF-CEM [7] was inactive. For the same molecule, the Activity entry in the experiment on CCRF-CEM [6], in the experiment with CCRF-CEM [14], with CCRF-CEM [15], with CCRF-CEM [16] and in the experiment with CCRF-CEM [17] was “Dose-dependent effect” each time. Moreover, the result with CCRF-CEM [9] and in the experiment on CCRF-CEM [13] was Active.
With `C=CCCCCCCCCC(=O)OC[C@@H](C)[C@@]1(O)[C@@H](O[C@@H]2OC[C@H](O)[C@H](O[C@@H]3OC[C@@H](O)[C@H](O)[C@H]3OC(=O)c3ccc(OC)cc3)[C@H]2OC(C)=O)C[C@H]2[C@@H]3CC=C4C[C@@H](O)CC[C@]4(C)[C@H]3CC[C@@]21C`, the “fold change (FC)” value with CCRF-CEM [18], with CCRF-CEM [21], in the experiment on CCRF-CEM [22] and with CCRF-CEM [23] was 2.5 throughout. The IC50 with CCRF-CEM [4] was 6.1 nM; in the experiment with HeLa it was 103 nM; in the experiment on A549, 600 nM; in experiment [12] it was 7 nM; with HOS it was 1940 nM; with G-361 it was 6.7 nM. Also, the IC50 in the experiment on MCF7 is 29 nM; with HCT-116 it was 2600 nM; in the experiment with BJ, 3 nM. The outcome in the experiment with CCRF-CEM [19] and with CCRF-CEM [20] was inactive. Besides, the Activity entry with CCRF-CEM [14], in the experiment with CCRF-CEM [15], with CCRF-CEM [16] and in the experiment with CCRF-CEM [17] was “Dose-dependent effect” in each case. The outcome in the experiment with CCRF-CEM [24] was Active.
